# In patent publication US20250381269A1, “BISPECIFIC ANTIBODY BINDING EGFR AND B7-H3” (FORTVITA BIOLOGICS (SINGAPORE) PTE. LTD., priority 2022, published 2025):
# What was measured:
# Colo-680N = assay: Proliferation inhibition experiment, Colo-680N (HNSCC); type: cell-based; conditions: EGFR WT, KRAS WT
# Procedure: (§1) • (1) NSCLC: plated at 1500-2500 cells/100 μL in a 96-well low-adsorption plate (Corning, CLS7007-24EA) for 3D cell culture, in which the following cell lines and specific amounts were used: • NSCLC: 2000 cells/100 μL/well • NCI-H292: Cell Bank of the Chinese Academy of Sciences, SCSP-582 • NCI-H322: Cobioer, CBP60134 • NCI-H1650: ATCC, CRL-5883 • NCI-H1975: ATCC, CRL-5908 • SK-MES-1: CoBioer, CBP60152 • NCI-H1703: ATCC, HTB-43 • PC9+hB7H3: constructed as described above • CRC and HNSCC: plated at 1500-2000 cells/100 μL in a 96-well white-bottom plate (NUNC, 136101) for 2D cell culture, in which the following cell lines and specific amounts were used: • CRC: 1500 cells/100 μL/well • CCK-81: CoBioer, CBP60581 • HT-55: CoBioer, CBP60012 • H508: CoBioer, CBP60795 • LS180: CoBioer, CBP60034 • HNSCC: 1500 cells/100 μL/well • TE-1: CoBioer, CBP60655 • Colo680: CoBioer, CBP60452. (2) The antibody molecules prepared in advance by dilution were added to the corresponding cell well plate, mixed well, and cultured in an incubator at 37° C. with 5% CO2 for 5 days. • (3) After 5 days of continuous culture for proliferation inhibition assay, the Cell-Titer reagent (Promega, G7572) prepared in advance was added to cell wells, the plate was left to stand at room temperature for 15-25 min in the dark, and then CRC and HNSCC cells were directly detected by a multimode microplate reader (Molecular Devices, Spectra MAXi3). • (4) NSCLC: Cell-Titer and the cell mixture were transferred to a 96-well white-bottom plate (NUNC, 136101) and detected by a multimode microplate reader (Molecular Devices, Spectra MAXi3).
# H322 [1] = assay: ADCC report assay, H322; type: cell-based; conditions: EGFR WT, KRAS WT, effector/target 10:1, 20 h
# Procedure: (§2) In the ADCC report assay, ADCC effector cells ((Promega, G7102)) are engineered cells in which FcRIIIa (V158) receptor is overexpressed into Jurkat T cells, which rapidly respond to ADCC through the NFAT-RE driving element within the Jurkat T cells.
# (§3) • (1) Tumor cells (cell lines listed in Table 3) and ADCC effector cells (Promega, G7102) were mixed well (1.5E4 cells: 1.5E5 cells/well/100 μL (1.5E5: 1.5E6 cells/mL)) according to an effector/target ratio (10:1), and added to a 96-well white plate (NUNC, 136101). • (2) The antibody molecules prepared in advance by dilution were added to the corresponding cell well plates, mixed well, and cultured at 37° C. with 5% CO2 for 20 h. • (3) The Bio-glo reagent (Promega, G755B) prepared in advance was added to the cell well plate, the plate was left to stand at room temperature for 10-15 min in the dark, and then the cells were detected by a multimode microplate reader (Molecular Devices, Spectra MAXi3).
# SK-MES-1 = assay: ADCC report assay, SK-MES-1; type: cell-based; conditions: EGFR Amplification, KRAS WT, effector/target 10:1, 20 h
# Procedure: as §2, §3
# H1975 = assay: ADCC report assay, H1975; type: cell-based; conditions: EGFR L858R T790M, KRAS WT, effector/target 10:1, 20 h
# Procedure: as §2, §3
# H322 [2] = assay: Proliferation inhibition experiment, H322 (NSCLC); type: cell-based; conditions: EGFR WT, KRAS WT
# Procedure: as §1
# TE-1 = assay: Proliferation inhibition experiment, TE-1 (HNSCC); type: cell-based; conditions: EGFR WT, KRAS WT
# Procedure: as §1
# H1650 [3] = assay: ADCC report assay, H1650; type: cell-based; conditions: EGFR Amplification Del19, KRAS WT, effector/target 10:1, 20 h
# Procedure: as §2, §3
# H1650 [4] = assay: Proliferation inhibition experiment, H1650 (NSCLC); type: cell-based; conditions: EGFR Amplification Del19, KRAS WT
# Procedure: as §1
# [5] = tested on: SK-MES-1 tumor-bearing mice; assay: Anti-tumor efficacy in SK-MES-1 tumor-bearing mice, 1 mg/kg single dose; type: in vivo; conditions: SK-MES-1, Balb/c Nude mice, day 24; for Tumor volume (mm^3): 1 mg/kg i.p. single dose on day 6; for Complete response rate / Tumor growth inhibition (%): 1 mg/kg i.p. single dose; for Complete response rate: 7 mice per group; for Tumor growth inhibition (%): vs h-IgG 1 mg/kg
# Text: SPF female Balb/c Nude mice (purchased from Beijing Vital River Laboratory Animal Technology Co., Ltd.) with certificate No. 110011211108966881 were used in the experiment.
# SK-MES-1 cells were routinely subcultured for the subsequent in-vivo experiment. The cells were collected by centrifugation. Then the SK-MES-1 cells were resuspended in an equal-proportion mixture of PBS (1×) and Matrigel Matrix (Corning) to prepare a cell suspension with a cell concentration of 20×10^6 cells/mL. On day 0, 0.2 mL of the cell suspension was taken and subcutaneously inoculated to the right abdominal area of Balb/c Nude mice to establish SK-MES-1 tumor-bearing mouse models.
# Six days after the tumor cell inoculation, the tumor volume in each mouse was measured. The mice were grouped (with 7 mice in each group).
# Administration was performed once on day 6 after the inoculation of SK-MES-1 cells. Mice were monitored for tumor volume and body weight twice a week.
# Tumor volume measurement: The maximum length of major axis (L) and maximum length of minor axis (W) of tumors were measured with a vernier caliper, and tumor volume was calculated by the following formula: V=L×W^2/2. The mice were weighed using an electronic balance.
# H358 = assay: ADCC report assay, H358; type: cell-based; conditions: EGFR WT, KRAS G12C, effector/target 10:1, 20 h
# Procedure: as §2, §3
substance,measurement,setting,value
amivantamab [JNJ372],Max inhibition (%) Mean ± SD,Colo-680N,26.5 ± 2.2%
same,IC50,"Colo-680N; 2D culture, 5 days",25500 pM
same,EC50,H322 [1],106 pM
same,EC50,SK-MES-1,144 pM
same,EC50,H1975,63 pM
same,Max inhibition (%) Mean ± SD,H322 [2],38.2 ± 6.7%
same,IC50,"H322 [2]; 3D culture, 5 days",8060 pM
same,Max inhibition (%) Mean ± SD,TE-1,32.2 ± 4.7%
same,IC50,"TE-1; 2D culture, 5 days",570000 pM
same,EC50,H1650 [3],102 pM
same,Max inhibition (%) Mean ± SD,H1650 [4],31.0 ± 1.4%
same,IC50,"H1650 [4]; 3D culture, 5 days",20600 pM
same,Tumor volume (mm^3),[5],87 mm^3
same,Complete response rate,[5],0/7
same,Tumor growth inhibition (%),[5],122%
same,EC50,H358,18 pM
zalutumumab [Zalu mAb],Max inhibition (%) Mean ± SD,Colo-680N,24.9 ± 1.1%
same,EC50,H322 [1],6 pM
same,EC50,SK-MES-1,11 pM
same,EC50,H1975,29 pM
same,Max inhibition (%) Mean ± SD,H322 [2],39.9 ± 0.8%
same,Max inhibition (%) Mean ± SD,TE-1,42.2 ± 1.1%
same,EC50,H1650 [3],21 pM
same,Max inhibition (%) Mean ± SD,H1650 [4],26.8 ± 2.6%
same,Tumor volume (mm^3),[5],23 mm^3
same,Complete response rate,[5],2/7
same,Tumor growth inhibition (%),[5],145%
same,EC50,H358,4 pM
